Measurements from the supplement of paper PMC13380429.

Columns and labels:
[1] = tested on: HepG2; test: drug sensitivity score (DSS) for viability; higher = more toxic; extreme values may be limits of the assay; conditions: 72 h
[2] = tested on: U2OS; test: as above; conditions: 72 h
[3] = tested on: Calu-3; test: as above; conditions: 72 h
[4] = tested on: Vero E6; test: as above; conditions: 72 h
[5] = tested on: Caco-2; test: as above; conditions: 72 h
[6] = tested on: A549-ACE2 infected with SARS-CoV-2; test: morphology score (similarity to uninfected cells); higher = more like uninfected cells; conditions: 24 h
[7] = tested on: A549-ACE2 infected with SARS-CoV-2; test: SARS-CoV-2 infection rate relative to DMSO; higher = more infection; conditions: 24 h
[8] = tested on: A549-ACE2; test: phospholipidosis EC50; higher = less potent phospholipidosis inducer
[9] = tested on: A549-ACE2; test: drug-induced phospholipidosis relative to tamoxifen; higher = more phospholipidosis
[10] = tested on: HepG2; test: cell viability relative to DMSO; higher = less toxic; conditions: 72 h
[11] = tested on: U2OS; test: as above; conditions: 72 h
[12] = tested on: Calu-3; test: as above; conditions: 72 h
[13] = tested on: Vero E6; test: as above; conditions: 72 h
[14] = tested on: Caco-2; test: as above; conditions: 72 h
[15] = tested on: A549-ACE2 infected with SARS-CoV-2; test: cell count relative to DMSO; higher = less toxic; conditions: 24 h
[16] = tested on: Calu-3; test: relative viability EC50 (midpoint between 100% and the lowest measured viability); higher = less toxic; conditions: 72 h
[17] = tested on: Vero E6; test: as above; conditions: 72 h
[18] = tested on: Caco-2; test: as above; conditions: 72 h
[19] = tested on: U2OS; test: as above; conditions: 72 h

COCC(=O)O[C@]1(CCN(C)CCCc2nc3ccccc3[nH]2)CCc2cc(F)ccc2[C@@H]1C(C)C [mibefradil]
Conditions	drug sensitivity score	relative viability EC50 [µM]
[1]	2.8	–
[2]	3	–
[3]	5.1	–
[4]	0	–
[5]	4.9	–
[16]	–	3.24
[17]	–	> 10
[18]	–	1.61

Conditions	SARS-CoV-2 infection rate [%]	cell count [%]	cell viability [%]	morphology score	phospholipidosis EC50 [µM]
[6], 0.3 µM	–	–	–	-0.1	–
[6], 3 µM	–	–	–	0.85	–
[6], 10 µM	–	–	–	0.71	–
[6], 30 µM	–	–	–	-0.08	–
[7], 0.3 µM	102	–	–	–	–
[7], 3 µM	32	–	–	–	–
[7], 10 µM	9	–	–	–	–
[7], 30 µM	84	–	–	–	–
[8], 24 h	–	–	–	–	2.94
[8], 48 h	–	–	–	–	4.35
[8], 72 h	–	–	–	–	7.83
[10], 1 nM	–	–	99	–	–
[10], 10 nM	–	–	97.7	–	–
[10], 100 nM	–	–	88.2	–	–
[10], 1000 nM	–	–	98.3	–	–
[10], 10000 nM	–	–	50.3	–	–
[11], 1 nM	–	–	103	–	–
[11], 10 nM	–	–	97.9	–	–
[11], 100 nM	–	–	98.7	–	–
[11], 1000 nM	–	–	90.9	–	–
[11], 10000 nM	–	–	65.6	–	–
[12], 1 nM	–	–	99.8	–	–
[12], 10 nM	–	–	105	–	–
[12], 100 nM	–	–	109	–	–
[12], 1000 nM	–	–	101	–	–
[12], 10000 nM	–	–	7.2	–	–
[13], 1 nM	–	–	94.7	–	–
[13], 10 nM	–	–	98.8	–	–
[13], 100 nM	–	–	92.9	–	–
[13], 1000 nM	–	–	91.4	–	–
[13], 10000 nM	–	–	89	–	–
[14], 1 nM	–	–	101	–	–
[14], 10 nM	–	–	90.3	–	–
[14], 100 nM	–	–	101	–	–
[14], 1000 nM	–	–	87.4	–	–
[14], 10000 nM	–	–	45.8	–	–
[15], 0.3 µM	–	100	–	–	–
[15], 3 µM	–	125	–	–	–
[15], 10 µM	–	119	–	–	–
[15], 30 µM	–	12	–	–	–

drug-induced phospholipidosis [%], [9]
Conditions	0.3 µM	0.833333 µM	3.33333 µM	6.66667 µM	10 µM	30 µM
24 h	-2.56	5.28	65.2	87.9	115	45.3
48 h	0.45	7.22	63.5	96.7	118	–
72 h	4.04	7.42	45.4	91.8	122	–

CN1Cc2ccccc2[C@@H]2c3cccc4[nH]cc(c34)C[C@H]21 [CY208-243]
Conditions	drug sensitivity score	relative viability EC50 [µM]
[1]	2.1	–
[2]	0.3	–
[3]	0	–
[4]	0.4	–
[5]	0.2	–
[16]	–	> 10
[17]	–	> 10
[18]	–	> 10
[19]	–	> 10

Conditions	SARS-CoV-2 infection rate [%]	cell count [%]	cell viability [%]	morphology score	phospholipidosis EC50 [µM]
[6], 0.3 µM	–	–	–	-0.03	–
[6], 3 µM	–	–	–	0.26	–
[6], 10 µM	–	–	–	0.44	–
[6], 30 µM	–	–	–	0.69	–
[7], 0.3 µM	100	–	–	–	–
[7], 3 µM	99	–	–	–	–
[7], 10 µM	87	–	–	–	–
[7], 30 µM	52	–	–	–	–
[8], 24 h	–	–	–	–	8.69
[8], 48 h	–	–	–	–	27.8
[10], 1 nM	–	–	102	–	–
[10], 10 nM	–	–	96.9	–	–
[10], 100 nM	–	–	92.1	–	–
[10], 1000 nM	–	–	99.5	–	–
[10], 10000 nM	–	–	59.7	–	–
[11], 1 nM	–	–	95.7	–	–
[11], 10 nM	–	–	99.4	–	–
[11], 100 nM	–	–	97.3	–	–
[11], 1000 nM	–	–	100	–	–
[11], 10000 nM	–	–	83.3	–	–
[12], 1 nM	–	–	92.8	–	–
[12], 10 nM	–	–	99.8	–	–
[12], 100 nM	–	–	93.8	–	–
[12], 1000 nM	–	–	96.5	–	–
[12], 10000 nM	–	–	90.4	–	–
[13], 1 nM	–	–	99	–	–
[13], 10 nM	–	–	92.7	–	–
[13], 100 nM	–	–	97	–	–
[13], 1000 nM	–	–	99.2	–	–
[13], 10000 nM	–	–	83.8	–	–
[14], 1 nM	–	–	99.1	–	–
[14], 10 nM	–	–	100	–	–
[14], 100 nM	–	–	94.8	–	–
[14], 1000 nM	–	–	110	–	–
[14], 10000 nM	–	–	82.8	–	–
[15], 0.3 µM	–	97	–	–	–
[15], 3 µM	–	77	–	–	–
[15], 10 µM	–	82	–	–	–
[15], 30 µM	–	80	–	–	–

drug-induced phospholipidosis [%], [9]
Conditions	0.3 µM	0.833333 µM	3.33333 µM	6.66667 µM	10 µM	30 µM
24 h	2.51	3.29	14.1	30.7	58.4	88.2
48 h	1.19	3.01	17.4	28.4	77.3	–
72 h	4.71	3.9	–	–	–	–
